What all share (type): biochemical
Assay [1] has as its target 320 wild-type protein kinases (Homo sapiens, UniProt Q9H1R3). Particulars: singlicate. The text has this:
(§1) Table S4. Profiling of two compounds at two concentrations against 320 wild-type protein kinases; singlicate measurement; Residual activities (% of control).

For assay [2], the target named is 320 wild-type protein kinases (Homo sapiens, UniProt P31751). The following applies: singlicate.
From the text: as §1

Assay [3] concerns the target 320 wild-type protein kinases (Homo sapiens, UniProt P78362). The following applies: kinase SRPK2, singlicate.
From the text: as §1

Assay [4] has as its target T1, 320 wild-type protein kinases (Homo sapiens, UniProt O14757).
T1 sequence (O14757 1-476): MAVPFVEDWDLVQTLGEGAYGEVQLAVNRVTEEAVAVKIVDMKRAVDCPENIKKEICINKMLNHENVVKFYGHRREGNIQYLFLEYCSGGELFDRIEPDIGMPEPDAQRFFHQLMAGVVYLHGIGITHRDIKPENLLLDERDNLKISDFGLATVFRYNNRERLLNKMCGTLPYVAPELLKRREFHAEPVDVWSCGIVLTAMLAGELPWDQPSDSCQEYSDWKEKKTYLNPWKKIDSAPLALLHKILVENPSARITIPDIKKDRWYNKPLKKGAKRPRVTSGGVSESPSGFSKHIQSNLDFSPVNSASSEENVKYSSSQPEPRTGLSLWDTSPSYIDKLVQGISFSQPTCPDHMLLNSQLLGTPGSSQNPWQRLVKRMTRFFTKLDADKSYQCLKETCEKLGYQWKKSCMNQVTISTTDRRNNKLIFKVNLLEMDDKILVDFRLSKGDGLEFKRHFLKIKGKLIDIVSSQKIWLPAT
Particulars: singlicate.
From the text: as §1

Assay [5] deals with 320 wild-type protein kinases (Homo sapiens, UniProt Q16512). The following applies: singlicate.
From the text: as §1

The target of assay [6] is T2, 320 wild-type protein kinases (Homo sapiens, UniProt P36888).
T2 sequence (P36888 27-993): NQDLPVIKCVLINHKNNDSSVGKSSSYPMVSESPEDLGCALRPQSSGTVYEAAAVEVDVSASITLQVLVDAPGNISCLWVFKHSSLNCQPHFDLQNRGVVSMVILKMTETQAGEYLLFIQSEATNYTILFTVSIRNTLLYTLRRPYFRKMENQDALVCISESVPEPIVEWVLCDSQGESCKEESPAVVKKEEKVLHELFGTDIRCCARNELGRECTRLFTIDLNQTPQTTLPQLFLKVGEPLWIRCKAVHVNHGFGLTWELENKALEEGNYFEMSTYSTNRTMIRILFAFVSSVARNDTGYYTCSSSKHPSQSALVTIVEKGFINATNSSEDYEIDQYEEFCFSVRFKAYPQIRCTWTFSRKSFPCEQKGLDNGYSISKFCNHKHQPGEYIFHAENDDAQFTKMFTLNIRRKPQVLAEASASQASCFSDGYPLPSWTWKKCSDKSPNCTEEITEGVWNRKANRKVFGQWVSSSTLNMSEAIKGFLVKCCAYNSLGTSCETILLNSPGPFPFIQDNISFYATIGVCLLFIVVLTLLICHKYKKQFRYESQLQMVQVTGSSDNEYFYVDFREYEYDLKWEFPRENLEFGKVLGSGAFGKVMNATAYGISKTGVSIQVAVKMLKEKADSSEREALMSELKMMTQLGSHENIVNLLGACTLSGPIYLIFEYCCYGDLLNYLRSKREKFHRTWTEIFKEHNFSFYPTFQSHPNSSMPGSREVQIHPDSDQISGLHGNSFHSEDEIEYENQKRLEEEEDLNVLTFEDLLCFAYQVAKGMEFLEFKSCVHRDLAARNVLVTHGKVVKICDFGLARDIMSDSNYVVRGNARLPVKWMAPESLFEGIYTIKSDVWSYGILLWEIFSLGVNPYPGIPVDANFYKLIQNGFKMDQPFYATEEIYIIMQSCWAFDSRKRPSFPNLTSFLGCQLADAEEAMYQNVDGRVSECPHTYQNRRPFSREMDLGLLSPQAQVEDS
Particulars: singlicate.
From the text: as §1

The target in assay [7] is T3, 320 wild-type protein kinases (Homo sapiens, UniProt P54760).
T3 sequence (P54760 16-987): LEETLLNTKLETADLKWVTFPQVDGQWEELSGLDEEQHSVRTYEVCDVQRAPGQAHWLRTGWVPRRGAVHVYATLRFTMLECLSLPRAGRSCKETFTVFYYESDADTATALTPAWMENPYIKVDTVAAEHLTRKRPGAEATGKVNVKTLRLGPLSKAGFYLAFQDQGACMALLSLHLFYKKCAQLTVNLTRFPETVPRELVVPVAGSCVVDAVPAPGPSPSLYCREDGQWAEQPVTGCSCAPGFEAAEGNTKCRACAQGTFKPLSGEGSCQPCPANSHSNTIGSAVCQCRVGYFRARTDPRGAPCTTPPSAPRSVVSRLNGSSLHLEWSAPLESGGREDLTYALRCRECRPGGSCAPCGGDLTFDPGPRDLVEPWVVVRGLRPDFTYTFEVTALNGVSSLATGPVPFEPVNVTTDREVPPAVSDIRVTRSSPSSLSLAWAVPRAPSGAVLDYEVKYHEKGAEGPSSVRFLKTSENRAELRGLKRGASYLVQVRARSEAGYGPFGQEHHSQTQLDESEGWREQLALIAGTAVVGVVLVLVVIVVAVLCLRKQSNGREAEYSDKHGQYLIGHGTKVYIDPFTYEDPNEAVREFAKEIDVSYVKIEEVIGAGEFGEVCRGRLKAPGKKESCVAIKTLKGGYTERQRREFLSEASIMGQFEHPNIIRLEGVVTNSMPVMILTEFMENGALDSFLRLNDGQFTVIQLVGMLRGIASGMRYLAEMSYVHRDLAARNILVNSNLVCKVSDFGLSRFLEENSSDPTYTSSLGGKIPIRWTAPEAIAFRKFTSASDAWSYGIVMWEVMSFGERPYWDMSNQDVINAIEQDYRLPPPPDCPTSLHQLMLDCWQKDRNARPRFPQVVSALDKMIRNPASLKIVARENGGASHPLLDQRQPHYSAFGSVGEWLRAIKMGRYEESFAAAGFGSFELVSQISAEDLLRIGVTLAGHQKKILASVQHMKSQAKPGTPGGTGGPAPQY
Particulars: singlicate.
From the text: as §1

These results are taken from PMC9329436, “Optimization of the 4-anilinoquin(az)oline scaffold as epidermal growth factor receptor (EGFR) inhibitors for chordoma utilizing a toxicology profiling assay platform” (Scientific Reports, 2022).

The structures appear in SMILES notation. Read-outs that look alike come from different tables or passages of the source.

Chain of 320 wild-type protein kinases (Homo sapiens, UniProt P78362) (P78362 whole entry): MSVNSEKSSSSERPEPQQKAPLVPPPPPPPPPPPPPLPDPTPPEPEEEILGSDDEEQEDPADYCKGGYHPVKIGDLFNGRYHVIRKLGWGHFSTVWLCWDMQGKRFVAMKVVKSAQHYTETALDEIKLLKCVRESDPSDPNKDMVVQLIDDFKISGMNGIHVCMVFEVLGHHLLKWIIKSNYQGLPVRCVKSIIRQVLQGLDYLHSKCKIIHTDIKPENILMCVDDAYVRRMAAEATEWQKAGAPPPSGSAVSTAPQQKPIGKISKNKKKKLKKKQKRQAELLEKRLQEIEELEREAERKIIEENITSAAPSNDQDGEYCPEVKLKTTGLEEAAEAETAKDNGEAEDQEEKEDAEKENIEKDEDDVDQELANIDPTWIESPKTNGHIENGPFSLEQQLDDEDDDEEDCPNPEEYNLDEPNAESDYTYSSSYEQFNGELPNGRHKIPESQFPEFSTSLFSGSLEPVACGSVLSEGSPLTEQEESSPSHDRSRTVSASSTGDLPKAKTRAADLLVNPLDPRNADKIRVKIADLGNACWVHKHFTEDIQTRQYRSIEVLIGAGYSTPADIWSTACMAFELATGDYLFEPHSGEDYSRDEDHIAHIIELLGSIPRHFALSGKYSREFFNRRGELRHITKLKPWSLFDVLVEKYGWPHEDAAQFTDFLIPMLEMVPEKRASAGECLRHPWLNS
Chain of 320 wild-type protein kinases (Homo sapiens, UniProt Q9H1R3) (Q9H1R3 whole entry): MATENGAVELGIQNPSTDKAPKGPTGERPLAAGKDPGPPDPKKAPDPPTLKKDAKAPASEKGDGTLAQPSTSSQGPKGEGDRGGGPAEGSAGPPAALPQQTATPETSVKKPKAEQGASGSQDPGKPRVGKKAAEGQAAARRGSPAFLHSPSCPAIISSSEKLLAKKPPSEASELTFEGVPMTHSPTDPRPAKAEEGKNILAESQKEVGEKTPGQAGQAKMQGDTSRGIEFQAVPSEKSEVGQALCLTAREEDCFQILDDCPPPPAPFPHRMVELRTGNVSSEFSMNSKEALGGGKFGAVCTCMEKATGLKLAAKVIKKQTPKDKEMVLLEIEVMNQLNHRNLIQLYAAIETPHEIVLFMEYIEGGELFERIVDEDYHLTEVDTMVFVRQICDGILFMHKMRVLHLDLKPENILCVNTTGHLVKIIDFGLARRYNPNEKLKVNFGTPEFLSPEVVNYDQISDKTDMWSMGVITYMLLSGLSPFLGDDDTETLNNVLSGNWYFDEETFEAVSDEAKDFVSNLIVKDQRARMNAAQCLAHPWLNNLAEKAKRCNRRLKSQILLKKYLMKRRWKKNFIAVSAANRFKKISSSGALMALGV
Chain of 320 wild-type protein kinases (Homo sapiens, UniProt Q16512) (Q16512 whole entry): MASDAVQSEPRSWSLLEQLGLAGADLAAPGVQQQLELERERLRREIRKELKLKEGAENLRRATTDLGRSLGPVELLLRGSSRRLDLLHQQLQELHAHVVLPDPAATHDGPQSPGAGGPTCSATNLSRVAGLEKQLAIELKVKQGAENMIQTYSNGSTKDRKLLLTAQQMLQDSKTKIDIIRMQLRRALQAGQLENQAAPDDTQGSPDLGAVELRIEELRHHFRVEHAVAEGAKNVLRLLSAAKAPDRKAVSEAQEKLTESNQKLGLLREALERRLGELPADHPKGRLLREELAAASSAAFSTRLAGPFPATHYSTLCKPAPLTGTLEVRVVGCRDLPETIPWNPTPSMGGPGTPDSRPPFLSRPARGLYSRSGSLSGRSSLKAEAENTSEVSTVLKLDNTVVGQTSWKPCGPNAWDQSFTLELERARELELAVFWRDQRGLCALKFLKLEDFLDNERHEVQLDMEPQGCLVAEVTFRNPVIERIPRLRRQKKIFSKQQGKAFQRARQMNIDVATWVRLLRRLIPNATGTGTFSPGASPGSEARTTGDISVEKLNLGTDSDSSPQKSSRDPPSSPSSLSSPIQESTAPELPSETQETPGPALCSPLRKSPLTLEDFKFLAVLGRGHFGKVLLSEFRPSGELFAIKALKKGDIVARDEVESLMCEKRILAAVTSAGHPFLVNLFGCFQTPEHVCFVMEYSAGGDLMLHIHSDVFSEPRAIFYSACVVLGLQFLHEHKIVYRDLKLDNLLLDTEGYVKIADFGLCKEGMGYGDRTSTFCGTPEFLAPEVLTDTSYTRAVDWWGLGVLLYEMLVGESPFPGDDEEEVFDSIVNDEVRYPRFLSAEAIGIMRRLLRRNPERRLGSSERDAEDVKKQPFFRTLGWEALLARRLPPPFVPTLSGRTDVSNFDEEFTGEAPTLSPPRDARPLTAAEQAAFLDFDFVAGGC
Chain of 320 wild-type protein kinases (Homo sapiens, UniProt P31751) (P31751 whole entry): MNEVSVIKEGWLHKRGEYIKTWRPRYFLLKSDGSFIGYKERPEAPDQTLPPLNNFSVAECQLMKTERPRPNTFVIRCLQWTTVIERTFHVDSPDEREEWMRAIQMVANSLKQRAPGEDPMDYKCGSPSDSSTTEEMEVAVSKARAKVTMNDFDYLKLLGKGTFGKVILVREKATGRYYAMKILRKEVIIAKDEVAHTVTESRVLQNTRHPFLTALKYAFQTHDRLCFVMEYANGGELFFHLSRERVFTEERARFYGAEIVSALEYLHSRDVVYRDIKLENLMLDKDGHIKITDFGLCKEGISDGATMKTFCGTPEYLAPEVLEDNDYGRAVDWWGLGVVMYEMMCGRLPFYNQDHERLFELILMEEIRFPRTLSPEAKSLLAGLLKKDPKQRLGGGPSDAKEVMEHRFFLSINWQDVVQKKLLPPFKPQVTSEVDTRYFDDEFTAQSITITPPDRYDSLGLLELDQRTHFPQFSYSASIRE

As for `C#Cc1cc(Nc2ncnc3cc(OC)c(OC)cc23)ccc1Cl` [Compound 45], the Residual activity in assay [1] (MYLK2, 1.0E-06 M) is 70 % of control; in assay [1] (MYLK2, 1.0E-07 M), 89 % of control; in assay [2] (AKT2 aa107-481, 1.0E-06 M), 94 % of control; in assay [2] (AKT2 aa107-481, 1.0E-07 M) it was 112 % of control; in assay [4] (CHK1, 1.0E-06 M) it was 74 % of control; in assay [4] (CHK1, 1.0E-07 M), 94 % of control. Besides, the Residual activity is recorded as 91 % of control in assay [5] (PRK1, 1.0E-06 M); 91 % of control in assay [5] (PRK1, 1.0E-07 M); 56 % of control in assay [6] (FLT3, 1.0E-06 M); 88 % of control in assay [6] (FLT3, 1.0E-07 M); 82 % of control in assay [7] (EPHB4, 1.0E-06 M); 101 % of control in assay [7] (EPHB4, 1.0E-07 M). In addition, the entries for the “Residual activity, SRPK2” value in assay [3] (assay conc. 1.0E-06 M) and in assay [3] (assay conc. 1.0E-07 M) were 151 % of control and 115 % of control, respectively.

Regarding `C#Cc1cc(Nc2ncnc3cc(I)ccc23)ccc1Cl` [Compound 41], the Residual activity is reported as 75 % of control in assay [1] (MYLK2, 1.0E-06 M); 90 % of control in assay [1] (MYLK2, 1.0E-07 M); 86 % of control in assay [2] (AKT2 aa107-481, 1.0E-06 M); 98 % of control in assay [2] (AKT2 aa107-481, 1.0E-07 M); 85 % of control in assay [4] (CHK1, 1.0E-06 M); 94 % of control in assay [4] (CHK1, 1.0E-07 M). Further, the Residual activity in assay [5] (PRK1, 1.0E-06 M) is listed as 96 % of control; in assay [5] (PRK1, 1.0E-07 M), 96 % of control; in assay [6] (FLT3, 1.0E-06 M), 94 % of control; in assay [6] (FLT3, 1.0E-07 M), 95 % of control; in assay [7] (EPHB4, 1.0E-06 M), 92 % of control; in assay [7] (EPHB4, 1.0E-07 M), 89 % of control. Further, the “Residual activity, SRPK2” value is 115 % of control in assay [3] (assay conc. 1.0E-06 M) and 131 % of control in assay [3] (assay conc. 1.0E-07 M).
